Data set [1] concerns the target Nav 1.5 (Homo sapiens (Human), UniProt Q14524). Description: in-vitro Nav 1.5 PX data. As to conditions: read-out: Nav 1.5 PX IC50; in-vitro PX.
For data set [2], the target named is Nav 1.7 (Homo sapiens (Human), UniProt Q15858). Description: in-vitro Nav 1.7 PX data. The data set is classed as cell-based. As to conditions: in-vitro PX.
Sequence of Nav 1.7 (Q15858 whole entry): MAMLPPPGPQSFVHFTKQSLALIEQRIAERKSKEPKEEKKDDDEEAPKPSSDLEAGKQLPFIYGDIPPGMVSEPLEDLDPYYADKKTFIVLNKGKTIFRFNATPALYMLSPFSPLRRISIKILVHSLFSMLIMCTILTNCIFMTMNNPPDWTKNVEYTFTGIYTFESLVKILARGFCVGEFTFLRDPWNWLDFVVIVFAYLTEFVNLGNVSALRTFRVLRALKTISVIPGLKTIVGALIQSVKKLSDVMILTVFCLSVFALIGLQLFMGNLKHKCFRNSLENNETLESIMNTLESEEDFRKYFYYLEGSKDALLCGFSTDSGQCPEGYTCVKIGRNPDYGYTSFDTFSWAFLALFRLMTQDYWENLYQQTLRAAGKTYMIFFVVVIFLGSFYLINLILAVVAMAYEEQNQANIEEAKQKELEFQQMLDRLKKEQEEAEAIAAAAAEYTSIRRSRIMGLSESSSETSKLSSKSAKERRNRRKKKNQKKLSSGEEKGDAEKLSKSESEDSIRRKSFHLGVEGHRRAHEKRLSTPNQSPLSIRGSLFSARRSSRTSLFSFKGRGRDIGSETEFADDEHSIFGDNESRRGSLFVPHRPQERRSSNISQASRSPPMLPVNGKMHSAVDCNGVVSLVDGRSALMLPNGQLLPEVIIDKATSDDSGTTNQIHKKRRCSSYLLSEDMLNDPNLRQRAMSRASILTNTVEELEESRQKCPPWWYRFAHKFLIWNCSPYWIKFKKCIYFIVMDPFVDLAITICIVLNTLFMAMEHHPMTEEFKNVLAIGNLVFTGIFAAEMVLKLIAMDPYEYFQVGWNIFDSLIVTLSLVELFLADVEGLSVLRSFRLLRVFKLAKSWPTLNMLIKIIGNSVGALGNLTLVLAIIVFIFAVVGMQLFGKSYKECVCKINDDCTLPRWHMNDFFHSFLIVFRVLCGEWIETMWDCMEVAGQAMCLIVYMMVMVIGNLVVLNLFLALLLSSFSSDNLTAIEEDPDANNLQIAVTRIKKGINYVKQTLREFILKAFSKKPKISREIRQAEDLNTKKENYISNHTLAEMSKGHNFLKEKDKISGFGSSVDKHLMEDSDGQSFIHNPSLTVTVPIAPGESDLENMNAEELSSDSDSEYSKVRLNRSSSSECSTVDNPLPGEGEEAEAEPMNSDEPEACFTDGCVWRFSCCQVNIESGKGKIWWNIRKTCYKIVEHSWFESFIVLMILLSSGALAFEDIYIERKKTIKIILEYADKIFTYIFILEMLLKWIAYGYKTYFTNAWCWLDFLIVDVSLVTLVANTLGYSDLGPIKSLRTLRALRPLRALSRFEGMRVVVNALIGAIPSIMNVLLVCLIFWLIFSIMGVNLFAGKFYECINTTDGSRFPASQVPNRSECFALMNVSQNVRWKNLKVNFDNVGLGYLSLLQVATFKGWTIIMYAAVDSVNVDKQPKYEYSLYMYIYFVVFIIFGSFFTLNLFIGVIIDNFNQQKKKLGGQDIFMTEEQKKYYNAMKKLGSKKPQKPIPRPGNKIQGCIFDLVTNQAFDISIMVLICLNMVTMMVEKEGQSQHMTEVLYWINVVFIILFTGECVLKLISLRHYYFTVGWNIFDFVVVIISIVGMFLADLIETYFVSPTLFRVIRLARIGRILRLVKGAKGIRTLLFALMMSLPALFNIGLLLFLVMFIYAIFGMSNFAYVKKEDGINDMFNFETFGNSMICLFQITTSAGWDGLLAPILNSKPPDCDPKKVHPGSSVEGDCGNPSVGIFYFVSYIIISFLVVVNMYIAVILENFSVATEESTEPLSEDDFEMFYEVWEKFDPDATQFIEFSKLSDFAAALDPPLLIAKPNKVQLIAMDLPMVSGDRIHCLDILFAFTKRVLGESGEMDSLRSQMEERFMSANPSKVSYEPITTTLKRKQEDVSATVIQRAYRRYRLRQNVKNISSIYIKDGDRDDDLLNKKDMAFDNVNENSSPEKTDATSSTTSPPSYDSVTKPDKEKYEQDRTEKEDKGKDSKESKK

Sequence of Nav 1.5 (Q14524 whole entry): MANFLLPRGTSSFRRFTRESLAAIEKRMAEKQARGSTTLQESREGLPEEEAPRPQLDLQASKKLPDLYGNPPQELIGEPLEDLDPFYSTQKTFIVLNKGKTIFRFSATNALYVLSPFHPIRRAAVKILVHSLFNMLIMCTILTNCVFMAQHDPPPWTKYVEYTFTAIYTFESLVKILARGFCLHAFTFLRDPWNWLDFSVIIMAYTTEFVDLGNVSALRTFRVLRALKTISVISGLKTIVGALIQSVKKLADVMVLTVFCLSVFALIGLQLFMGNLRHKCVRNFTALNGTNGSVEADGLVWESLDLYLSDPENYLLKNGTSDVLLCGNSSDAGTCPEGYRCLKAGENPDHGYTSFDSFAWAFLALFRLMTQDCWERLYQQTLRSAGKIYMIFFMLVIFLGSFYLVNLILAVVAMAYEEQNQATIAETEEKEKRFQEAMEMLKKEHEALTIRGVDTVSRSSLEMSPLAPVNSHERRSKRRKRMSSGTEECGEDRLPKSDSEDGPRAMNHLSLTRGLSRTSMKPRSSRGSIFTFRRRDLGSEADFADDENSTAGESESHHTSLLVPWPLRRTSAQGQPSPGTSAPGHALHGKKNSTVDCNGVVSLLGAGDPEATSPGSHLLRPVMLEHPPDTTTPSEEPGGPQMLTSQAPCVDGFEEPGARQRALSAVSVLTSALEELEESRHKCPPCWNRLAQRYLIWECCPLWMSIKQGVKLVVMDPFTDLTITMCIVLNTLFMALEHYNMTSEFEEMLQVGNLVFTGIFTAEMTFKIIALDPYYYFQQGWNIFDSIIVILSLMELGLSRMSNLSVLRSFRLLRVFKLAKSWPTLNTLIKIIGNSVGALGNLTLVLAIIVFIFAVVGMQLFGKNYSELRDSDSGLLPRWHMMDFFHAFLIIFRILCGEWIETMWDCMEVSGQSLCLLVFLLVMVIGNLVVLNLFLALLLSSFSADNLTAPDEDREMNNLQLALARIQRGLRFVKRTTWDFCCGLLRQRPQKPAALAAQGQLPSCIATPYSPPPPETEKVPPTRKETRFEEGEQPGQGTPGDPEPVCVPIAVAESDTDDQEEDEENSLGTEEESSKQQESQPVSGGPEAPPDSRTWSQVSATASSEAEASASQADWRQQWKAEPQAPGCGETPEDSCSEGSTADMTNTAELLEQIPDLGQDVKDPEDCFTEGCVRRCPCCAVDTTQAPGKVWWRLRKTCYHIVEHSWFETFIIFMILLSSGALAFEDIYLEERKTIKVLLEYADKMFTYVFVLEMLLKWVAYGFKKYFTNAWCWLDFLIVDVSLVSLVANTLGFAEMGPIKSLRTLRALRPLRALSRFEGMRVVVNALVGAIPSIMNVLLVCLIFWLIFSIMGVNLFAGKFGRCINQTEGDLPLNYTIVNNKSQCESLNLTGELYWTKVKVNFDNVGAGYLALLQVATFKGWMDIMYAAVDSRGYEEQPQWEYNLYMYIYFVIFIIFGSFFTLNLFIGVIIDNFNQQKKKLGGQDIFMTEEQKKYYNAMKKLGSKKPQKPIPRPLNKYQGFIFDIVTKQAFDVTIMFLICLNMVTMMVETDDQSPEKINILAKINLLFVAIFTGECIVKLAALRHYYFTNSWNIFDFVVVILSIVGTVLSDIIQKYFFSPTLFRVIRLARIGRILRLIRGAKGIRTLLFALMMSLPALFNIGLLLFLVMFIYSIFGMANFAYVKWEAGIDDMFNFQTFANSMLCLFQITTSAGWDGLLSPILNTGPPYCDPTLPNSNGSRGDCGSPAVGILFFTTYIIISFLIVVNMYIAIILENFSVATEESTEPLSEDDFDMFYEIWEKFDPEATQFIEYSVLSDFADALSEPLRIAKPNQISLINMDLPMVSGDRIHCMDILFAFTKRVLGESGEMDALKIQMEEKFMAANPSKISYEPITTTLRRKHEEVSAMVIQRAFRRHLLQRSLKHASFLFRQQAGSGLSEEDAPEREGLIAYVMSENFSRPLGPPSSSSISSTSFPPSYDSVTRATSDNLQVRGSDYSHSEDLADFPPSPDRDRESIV

For the compound `N#CCOc1cc(-c2cccc(F)c2)ccc1-c1nccc2cc(S(=O)(=O)Nc3ccon3)ccc12` [Example 231, 1-(3-(cyanomethoxy)-3′-fluoro-4-biphenylyl)-N-3-isoxazolyl-6-isoquinolinesulfonamide], the IC50 in data set [1] is > 30000 nM; in data set [2], 140 nM.
The matching figures for `COc1cc(-c2cc(F)cc(F)c2)c(Cl)cc1-c1nn(C)c(=O)c2cc(S(=O)(=O)Nc3ccon3)ccc12` [Example 233, 1-(2-chloro-3′,5′-difluoro-5-methoxy-4-biphenylyl)-N-3-isoxazolyl-3-methyl-4-oxo-3,4-dihydro-6-phthalazinesulfonamide]: > 30000 nM and 138 nM.
In the same order, the values of `COc1cc(-c2cc(F)cc(F)c2)c(Cl)cc1-c1nn(C)c(=O)c2cc(S(=O)(=O)Nc3nncs3)ccc12` [Example 235, 1-(2-chloro-3′,5′-difluoro-5-methoxy-4-biphenylyl)-3-methyl-4-oxo-N-1,3,4-thiadiazol-2-yl-3,4-dihydro-6-phthalazinesulfonamide] are > 10000 nM and 47.1 nM.
Take `COc1nc(N2CC(F)(F)C2)c(Cl)cc1-c1nccc2cc(S(=O)(=O)Nc3nncs3)ccc12` [Example 236, 1-(5-chloro-6-(3,3-difluoro-1-azetidinyl)-2-methoxy-3-pyridinyl)-N-1,3,4-thiadiazol-2-yl-6-isoquinolinesulfonamide]: the results for the IC50 in data set [1] and in data set [2] were > 30000 nM and 382 nM, respectively.
As for `COc1nc(N2CCC(F)(F)C2)c(Cl)cc1-c1nccc2cc(S(=O)(=O)Nc3nncs3)ccc12` [Example 237, 1-(5-chloro-6-(3,3-difluoro-1-pyrrolidinyl)-2-methoxy-3-pyridinyl)-N-1,3,4-thiadiazol-2-yl-6-isoquinolinesulfonamide], the concentration for half-maximal inhibition (IC50) is > 30000 nM in data set [1] and 336 nM in data set [2].
In the same order, the values of `N#CCOc1cc(-c2cccc(F)c2)ccc1-c1nccc2cc(S(=O)(=O)Nc3nncs3)ccc12` [Example 238, 1-(3-(cyanomethoxy)-3′-fluoro-4-biphenylyl)-N-1,3,4-thiadiazol-2-yl-6-isoquinolinesulfonamide] are > 10000 nM and 144 nM.
In the same order, the values of `COc1cc(-c2cccc(F)c2)c(Cl)cc1-c1ccnc2cc(S(=O)(=O)Nc3ccon3)ccc12` [Example 239, 4-(2-chloro-3′-fluoro-5-methoxy-4-biphenylyl)-N-3-isoxazolyl-7-quinolinesulfonamide] are 11200 nM and 115 nM.
The matching figures for `COc1cc(-c2cccc(F)c2)c(C#N)cc1-c1ncnc2cc(S(=O)(=O)Nc3nncs3)ccc12` [Example 241, 4-(2-cyano-3′-fluoro-5-methoxy-4-biphenylyl)-N-1,3,4-thiadiazol-2-yl-7-quinazolinesulfonamide]: > 10000 nM and 69.1 nM.
Consider `COc1cc(-c2cccc(F)c2)c(Cl)cc1-c1ncnc2cc(S(=O)(=O)Nc3ncccn3)ccc12` [Example 243, 4-(2-chloro-3′-fluoro-5-methoxy-4-biphenylyl)-N-2-pyrimidinyl-7-quinazolinesulfonamide], for which the results for the IC50 in data set [1] and in data set [2] were > 10000 nM and 80.3 nM, respectively.
The matching figures for `COc1nc(N2CCC(F)(F)CC2)c(Cl)cc1-c1nccc2cc(S(=O)(=O)Nc3nncs3)ccc12` [Example 244, 1-(5-chloro-6-(4,4-difluoro-1-piperidinyl)-2-methoxy-3-pyridinyl)-N-1,3,4-thiadiazol-2-yl-6-isoquinolinesulfonamide]: > 30000 nM and 424 nM.
